From patent publication US20250179000A1 (Sanford Burnham Prebys Medical Discovery Institute, priority 2021, published 2025)

Legend:
Assay type in all cases: cell-based
Rat mGlu2 = biological target: T1, Rat mGlu2 (Rattus norvegicus, UniProt P31421); assay: mGlu receptor in vitro assay, thallium flux through GIRK channels, rat mGlu2; conditions: PAM potency with EC20 glutamate
T1 construct: expressed in transfected cells; host or cells: HEK-293 co-expressing GIRK channels
In short: (§1)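 HEK-293 cells co-expressing rat mGlu2 or mGlu3 and GIRK, dye-loaded with FluoZin2-AM, compound added about 2.5 min before thallium buffer with EC20 glutamate; potency from the 5-15 s fluorescence slope, 10-point 4-parameter fit. Calcium assay at mGlu3 used TREx293 mGlu3 Gα15 cells induced with tetracycline 20 ng/mL for 20 h.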

Rat mGlu3 = biological target: T2, Rat mGlu3 (Rattus norvegicus, UniProt P31422); assay: mGlu receptor in vitro assay (thallium flux through GIRK channels / calcium assay), rat mGlu3; conditions: PAM potency with EC20 glutamate
T2 construct: expressed in transfected cells; host or cells: HEK-293 co-expressing GIRK channels
T2 sequence (P31422 23-879): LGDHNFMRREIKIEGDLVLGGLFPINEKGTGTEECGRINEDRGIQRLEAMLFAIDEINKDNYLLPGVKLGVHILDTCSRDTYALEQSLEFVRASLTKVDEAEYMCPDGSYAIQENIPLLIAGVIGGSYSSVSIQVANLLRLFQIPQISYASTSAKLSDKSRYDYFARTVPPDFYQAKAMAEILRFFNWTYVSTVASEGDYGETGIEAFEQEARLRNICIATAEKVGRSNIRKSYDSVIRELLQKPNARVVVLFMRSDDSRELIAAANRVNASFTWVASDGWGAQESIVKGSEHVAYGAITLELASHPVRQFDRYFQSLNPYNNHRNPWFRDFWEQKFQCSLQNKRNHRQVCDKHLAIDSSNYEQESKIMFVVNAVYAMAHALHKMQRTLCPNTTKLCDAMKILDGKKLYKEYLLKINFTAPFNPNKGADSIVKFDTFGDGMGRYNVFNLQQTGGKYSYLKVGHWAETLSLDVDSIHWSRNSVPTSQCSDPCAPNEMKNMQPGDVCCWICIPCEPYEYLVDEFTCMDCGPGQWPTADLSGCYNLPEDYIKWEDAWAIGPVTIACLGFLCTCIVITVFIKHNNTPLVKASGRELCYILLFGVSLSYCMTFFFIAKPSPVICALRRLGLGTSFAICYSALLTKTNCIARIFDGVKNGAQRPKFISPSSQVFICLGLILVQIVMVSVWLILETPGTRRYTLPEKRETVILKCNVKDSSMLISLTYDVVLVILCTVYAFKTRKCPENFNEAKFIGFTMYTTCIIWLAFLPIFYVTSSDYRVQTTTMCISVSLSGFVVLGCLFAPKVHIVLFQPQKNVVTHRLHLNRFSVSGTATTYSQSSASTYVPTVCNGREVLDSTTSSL
In short: as §1

Human mGlu2 = Human mGlu2 (Homo sapiens, UniProt Q14416); assay: mGlu receptor in vitro assay, human mGlu2
Chain of Human mGlu2 (Q14416 19-872): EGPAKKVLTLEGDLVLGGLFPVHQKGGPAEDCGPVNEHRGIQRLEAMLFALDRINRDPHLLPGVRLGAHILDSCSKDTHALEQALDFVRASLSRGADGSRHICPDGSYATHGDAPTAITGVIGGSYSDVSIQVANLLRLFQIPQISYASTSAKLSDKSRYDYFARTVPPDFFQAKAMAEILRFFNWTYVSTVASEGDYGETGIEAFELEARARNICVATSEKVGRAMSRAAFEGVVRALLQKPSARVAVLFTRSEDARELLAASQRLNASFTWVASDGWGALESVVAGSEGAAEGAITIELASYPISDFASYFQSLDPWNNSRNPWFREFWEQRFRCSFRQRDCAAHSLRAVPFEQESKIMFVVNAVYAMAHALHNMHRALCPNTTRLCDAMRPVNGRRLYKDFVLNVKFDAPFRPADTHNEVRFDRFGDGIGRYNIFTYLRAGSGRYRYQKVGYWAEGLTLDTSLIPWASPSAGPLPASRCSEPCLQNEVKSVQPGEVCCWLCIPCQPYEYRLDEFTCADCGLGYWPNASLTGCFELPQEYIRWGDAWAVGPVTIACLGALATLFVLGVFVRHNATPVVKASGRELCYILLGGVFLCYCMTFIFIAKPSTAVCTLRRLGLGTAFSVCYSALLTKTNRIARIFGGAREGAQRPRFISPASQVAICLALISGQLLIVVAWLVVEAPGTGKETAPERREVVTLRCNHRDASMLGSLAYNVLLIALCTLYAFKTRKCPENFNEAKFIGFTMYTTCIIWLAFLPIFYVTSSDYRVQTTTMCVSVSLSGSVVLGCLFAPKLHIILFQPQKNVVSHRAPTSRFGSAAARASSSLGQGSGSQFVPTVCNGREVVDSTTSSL

Human mGlu3 = Human mGlu3 (Homo sapiens, UniProt Q14832); assay: mGlu receptor in vitro assay, human mGlu3
Chain of Human mGlu3 (Q14832 23-879): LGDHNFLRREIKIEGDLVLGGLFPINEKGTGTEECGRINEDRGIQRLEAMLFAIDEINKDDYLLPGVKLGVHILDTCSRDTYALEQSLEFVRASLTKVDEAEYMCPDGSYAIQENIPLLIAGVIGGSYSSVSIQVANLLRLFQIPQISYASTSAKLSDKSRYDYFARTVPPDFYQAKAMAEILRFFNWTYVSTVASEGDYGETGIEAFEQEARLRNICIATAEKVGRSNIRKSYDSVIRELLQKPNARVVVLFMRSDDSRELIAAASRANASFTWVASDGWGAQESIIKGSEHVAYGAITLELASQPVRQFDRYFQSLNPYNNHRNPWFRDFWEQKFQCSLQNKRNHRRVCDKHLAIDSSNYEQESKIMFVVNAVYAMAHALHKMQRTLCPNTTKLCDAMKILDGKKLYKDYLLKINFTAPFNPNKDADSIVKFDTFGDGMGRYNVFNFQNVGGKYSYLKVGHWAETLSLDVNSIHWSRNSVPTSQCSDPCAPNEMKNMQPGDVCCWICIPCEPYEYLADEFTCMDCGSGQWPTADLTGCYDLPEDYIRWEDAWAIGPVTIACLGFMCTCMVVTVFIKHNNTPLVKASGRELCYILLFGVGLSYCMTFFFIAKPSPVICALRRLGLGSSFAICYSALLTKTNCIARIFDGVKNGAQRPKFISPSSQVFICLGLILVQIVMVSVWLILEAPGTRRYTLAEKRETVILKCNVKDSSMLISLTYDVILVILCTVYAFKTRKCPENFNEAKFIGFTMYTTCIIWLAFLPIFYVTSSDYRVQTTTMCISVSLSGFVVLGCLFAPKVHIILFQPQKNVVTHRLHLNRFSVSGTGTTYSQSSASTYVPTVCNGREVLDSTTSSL

T1 sequence (P31421 19-872): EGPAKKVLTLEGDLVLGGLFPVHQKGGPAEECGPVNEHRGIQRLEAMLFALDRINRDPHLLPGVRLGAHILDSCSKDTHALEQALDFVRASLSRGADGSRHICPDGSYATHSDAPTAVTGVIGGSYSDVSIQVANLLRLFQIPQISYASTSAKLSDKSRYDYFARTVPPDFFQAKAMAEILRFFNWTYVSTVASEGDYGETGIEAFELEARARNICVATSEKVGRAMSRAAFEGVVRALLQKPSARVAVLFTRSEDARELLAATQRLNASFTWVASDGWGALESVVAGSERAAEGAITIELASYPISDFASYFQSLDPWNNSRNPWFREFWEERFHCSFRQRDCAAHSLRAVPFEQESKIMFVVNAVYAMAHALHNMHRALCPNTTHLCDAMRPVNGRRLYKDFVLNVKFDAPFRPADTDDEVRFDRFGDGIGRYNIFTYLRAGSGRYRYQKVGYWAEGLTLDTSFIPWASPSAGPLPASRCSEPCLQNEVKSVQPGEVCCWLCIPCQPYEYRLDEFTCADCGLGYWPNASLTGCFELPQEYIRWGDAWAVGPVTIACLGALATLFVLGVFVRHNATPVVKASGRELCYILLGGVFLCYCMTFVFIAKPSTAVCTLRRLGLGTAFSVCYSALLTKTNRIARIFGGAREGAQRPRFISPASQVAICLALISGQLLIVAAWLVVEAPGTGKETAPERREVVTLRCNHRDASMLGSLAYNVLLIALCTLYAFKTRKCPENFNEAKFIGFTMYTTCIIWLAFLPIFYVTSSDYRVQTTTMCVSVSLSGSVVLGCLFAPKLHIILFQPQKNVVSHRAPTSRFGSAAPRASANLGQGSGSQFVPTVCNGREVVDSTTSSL

SMILES	EC50 (Rat mGlu2) [nM]	EC50 (Rat mGlu3) [nM]	EC50 (Human mGlu2) [nM]	EC50 (Human mGlu3) [nM]
COc1c(C(=O)O)cccc1-c1ccc(COc2ccc(C(=O)CC(C)(C)C)c(O)c2C)cc1 [compound 104, 3-(4-{[4-(3,3-Dimethylbutanoyl)-3-hydroxy-2-methylphenoxy]methyl}phenyl)-2-methoxybenzoic acid]	303	69	190	222
Cc1c(OCc2cnc(-c3ccc(F)c(C(=O)O)c3)cn2)ccc(C(=O)CC(C)(C)C)c1O [compound 115, 5-(5-((4-(3,3-Dimethylbutanoyl)-3-hydroxy-2-methylphenoxy)methyl)pyrazin-2-yl)-2-fluorobenzoic acid]	356	43	355	156
COc1ccc(C(=O)O)cc1-c1cnc(COc2ccc(C(=O)CC(C)(C)C)c(O)c2C)cn1 [compound 116, 3-(5-((4-(3,3-Dimethylbutanoyl)-3-hydroxy-2-methylphenoxy)methyl)pyrazin-2-yl)-4-methoxybenzoic acid]	117	28	234	213
COc1ccc(C(=O)NC2CC2)cc1-c1cnc(COc2ccc(C(=O)CC(C)(C)C)c(O)c2C)cn1 [compound 127, N-Cyclopropyl-3-(5-((4-(3,3-dimethylbutanoyl)-3-hydroxy-2-methylphenoxy)methyl)pyrazin-2-yl)-4-methoxybenzamide]	373	134	189	140
COc1ccc(-c2cnc(COc3ccc(C(=O)CC(C)(C)C)c(O)c3C)cn2)cc1C(=O)O [compound 128, 5-(5-((4-(3,3-Dimethylbutanoyl)-3-hydroxy-2-methylphenoxy)methyl)pyrazin-2-yl)-2-methoxybenzoic acid]	430	104	297	148
COc1cc(F)c(C(=O)O)cc1-c1cnc(COc2ccc(C(=O)CC(C)(C)C)c(O)c2C)cn1 [compound 130, 5-(5-((4-(3,3-Dimethylbutanoyl)-3-hydroxy-2-methylphenoxy)methyl)pyrazin-2-yl)-2-fluoro-4-methoxybenzoic acid]	254	53	76	31
COc1ccc(C(=O)O)cc1OCCCCOc1ccc(C(=O)CC(C)(C)C)c(O)c1 [compound 132, 3-(4-(4-(3,3-Dimethylbutanoyl)-3-hydroxyphenoxy)butoxy)-4-methoxybenzoic acid]	403	309	129	114
Cc1c(OCc2nc(-c3cccc(C(=O)O)c3)no2)ccc(C(=O)CC(C)(C)C)c1O [compound 133, 3-(5-((4-(3,3-Dimethylbutanoyl)-3-hydroxy-2-methylphenoxy)methyl)-1,2,4-oxadiazol-3-yl)benzoic acid]	268	247	74	79
CCCC(=O)c1ccc(OCc2nc(-c3cccc(C(=O)O)c3)no2)c(C)c1O [compound 135, 3-(5-((4-Butyryl-3-hydroxy-2-methylphenoxy)methyl)-1,2,4-oxadiazol-3-yl)benzoic acid]	106	660	133	748
Cc1c(C(=O)O)cccc1-c1cccc(COc2ccc(C(=O)CC(C)(C)C)c(O)c2C)c1 [compound 160, 3′-((4-(3,3-Dimethylbutanoyl)-3-hydroxy-2-methylphenoxy)methyl)-2-methyl-[1,1′-biphenyl]-3-carboxylic acid]	92	855	203	1480
Cc1c(OCc2cccc(-c3cccc(C(=O)NC#N)c3)c2)ccc(C(=O)CC(C)(C)C)c1O [compound 162, N-Cyano-3′-((4-(3,3-dimethylbutanoyl)-3-hydroxy-2-methylphenoxy)methyl)-[1,1′-biphenyl]-3-carboxamide]	166	145	234	593
